In patent publication US20210106703A1, “RADIOIMMUNOCONJUGATES IN COMBINATION WITH OTHER DRUGS AS TREATMENT AGAINST NHL” (Nordic Nanovector ASA, priority 2017, published 2021):
Where two headings read alike, the source gives them in different places.

Legend:
Test in all cases: Alamar Blue cytotoxicity study
[1] = tested on: DOHH2 cells; format: cell-based, human; conditions: for Combination Index (Chou-Talalay): 120 h; for IC50: Homo sapiens
Description: (§1) Cells were treated with either Humalutin, olaparib or a combination of both and seeded into 96 well-plates. At each time point after treatment, cells were incubated with Alamar Blue (Thermo Fisher, DALL1100) for 4 hours and fluorescence measurements were performed using a multiplate reader Fluoroskan ascent FL to assess cell proliferation and viability. All experiments were done in duplicates using 2 samples in each experiment. Data were normalized to the untreated controls.
(§2) Cells were incubated with 0.25, 0.5, 1, 2.5 or 5 μg/ml of Humalutin in cell culture flasks and incubated at 37° C./5% CO2. After 18-20 hours cells were washed and resuspended in fresh medium. Cell bound activity after washing was measured using a calibrated gamma detector (Cobra II auto-gamma detector, Packard Instrument Company, Meriden, Conn., USA). Cell concentration and viability was also measured after washing using Guava ViaCount Cell Dispersal Reagent for Flow Cytometry (Merck GaA, Darmstadt, Germany) and measured in a Guava EasyCyte 12HT (Merck KGaA, Darmstadt, Germany) to determine how well the cells survived the incubation. Cells were seeded in 96 well plates.
(§3) Cells were seeded in 96 well plates pre-coated with from 1 to 100 μM olaparib in 0.2 ml medium and incubated at 37° C./5% CO2 for 72 hours before the cytotoxic effect was measured using alamar blue cell viability assay.
(§4) Cells were incubated with either 0, 0.5 μg/ml or 1 μg/ml Humalutin and the same procedure as described before for treatment with humalutin alone and olaparib alone was followed. Concentrations of olaparib used were between 1 and 100 μM.
(§5) The Chou-Talalay model was used for synergy calculations using the Compusyn software. R (goodness of fit) was calculated for the individual treatments and should be over 0.90 in in vitro culture experiments in order to use the calculated combination index (CI). The CI is an indication of synergy: 0-0.9 is considered synergy. Synergysm grading was used as described in WO2006004917A2. […]
as §2, with “viability were” for “viability was”, “plates. Alamar blue viability measurements were performed 120 h after seeding.” for “plates.”

[2] = tested on: Granta 519 cells; format: cell-based, human; conditions: for Combination Index (Chou-Talalay): Granta, 120 h; for IC50: Homo sapiens
Description: as §1, §2, §3, §4, §5
as §2, with “viability were” for “viability was”, “plates. Alamar blue viability measurements were performed 120 h after seeding.” for “plates.”

[3] = tested on: Rec-1 cells; format: cell-based; conditions: Homo sapiens, Rec1; Rec-1, 72 h incubation after seeding
Description: as §1, §2
(§6) Cells were seeded in 96 well plates pre-coated with from 1 to 100 μM olaparib in 0.2 ml medium and incubated at 37° C./5% CO2 for 72 hours before the cytotoxic effect was measured using alamar blue cell viability assay. […]

[4] = tested on: WSU-DLCL2 cells; format: cell-based; conditions: Homo sapiens, WSUDLCL2; WSU-DLCL2, 72 h incubation after seeding
Description: as §1, §2, §6

[5] = tested on: SUDHL4 cells; format: cell-based, human; conditions: for IC50: Homo sapiens
Description: as §2, with “plates. […]” for “plates.”
as §1, with “venetoclax” for “olaparib”
Cells were incubated with either 0, 0.5 μg/ml or 1 μg/ml Humalutin and the same procedure as described before for treatment with Humalutin alone and venetoclax alone was followed.
The Chou-Talalay model was used for synergy calculations using the Compusyn software. R (goodness of fit) was calculated for the individual treatments and should be over 0.90 in in vitro culture experiments in order to use with confidence the calculated combination index (CI). The CI is an indication of synergy: 0-0.9 is considered synergy. Synergysm grading was used as described in WO2006004917A2.
as §2, with “viability were” for “viability was”, “plates. Alamar blue viability measurements were performed 120 h after seeding.” for “plates.”
(§7) Cells were incubated with either 0 (control), 0.5 μg/ml or 1 μg/ml Humalutin for 18 to 20 hours. Cells were then washed and resuspended in fresh medium.

[6] = tested on: U2932 cells; format: cell-based, human; conditions: for IC50: Homo sapiens
Description: as §1, §2, §3, §4, §5
as §2, with “viability were” for “viability was”, “plates. Alamar blue viability measurements were performed 120 h after seeding.” for “plates.”
as §7

**Q.** What does the source list for O=C(c1cc(Cc2n[nH]c(=O)c3ccccc23)ccc1F)N1CCN(C(=O)C2CC2)CC1 [olaparib]?
**A.** Combination Index (Chou-Talalay) ([1]; DOHH2, olaparib dose 2 + Humalutin 1 μg/ml): 1.34; Combination Index (Chou-Talalay) ([1]; DOHH2, olaparib dose 4 + Humalutin 1 μg/ml): 0.64; Combination Index (Chou-Talalay) ([1]; DOHH2, olaparib dose 8 + Humalutin 1 μg/ml): 0.43; Combination Index (Chou-Talalay) ([1]; DOHH2, olaparib dose 10 + Humalutin 1 μg/ml): 0.34; IC50 ([1]; DOHH-2, read-out: IC50 at 120 h, DOHH2, 120 h incubation after seeding): 7560 nM; IC50 ([1]; DOHH-2, DOHH2, 72 h incubation after seeding, read-out: IC50): 2060 nM; Synergism grade by Combination Index, combination with Humalutin ([2]; Granta 519, Humalutin 0.5 or 1 μg/ml, 72 h): very strong synergism; Combination Index (Chou-Talalay) ([2]; olaparib dose 2 + Humalutin 1 μg/ml): 1.77; Combination Index (Chou-Talalay) ([2]; olaparib dose 4 + Humalutin 1 μg/ml): 0.15; Combination Index (Chou-Talalay) ([2]; olaparib dose 8 + Humalutin 1 μg/ml): 0.06; Combination Index (Chou-Talalay) ([2]; olaparib dose 10 + Humalutin 1 μg/ml): 0.10; IC50 ([2]; read-out: IC50 at 120 h, Granta 519, 120 h incubation after seeding): 15000 nM; IC50 ([2]; Granta 519, 72 h incubation after seeding, read-out: IC50): 2680 nM; IC50 [3]: 721 nM; IC50 [4]: 1260 nM; IC50 ([5]; SU-DHL-4, read-out: IC50 at 120 h, SUDHL-4, 120 h incubation after seeding): 22100 nM; IC50 ([5]; SU-DHL-4, SUDHL4, 72 h incubation after seeding, read-out: IC50): 1040 nM; Synergism grade by Combination Index, combination with Humalutin ([5]; SUDHL4, Humalutin 0.5 or 1 μg/ml, 72 h): moderate antagonism; IC50 ([6]; read-out: IC50 at 120 h, U2932, 120 h incubation after seeding): 89100 nM; IC50 ([6]; U2932, 72 h incubation after seeding, read-out: IC50): 1930 nM; Synergism grade by Combination Index, combination with Humalutin ([6]; U2932, Humalutin 0.5 or 1 μg/ml, 72 h): very strong synergism
